Test results: PubChem BioAssay (NCI)
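All cell lines were grown in 96-well plates and treated with compound for 48 hours. The concentration for 50% growth inhibition is given as GI50. TGI: concentration producing complete growth inhibition.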

Legend:
Assay in all cases: NCI tumour cell line growth inhibition, 48 h
EKVX NSCLC = tested on: EKVX NSCLC
HL-60(TB) leukemia = tested on: HL-60(TB) leukemia
KM12 colon = tested on: KM12 colon
RXF 393 renal = tested on: RXF 393 renal
SK-OV-3 ovarian = tested on: SK-OV-3 ovarian
HOP-92 NSCLC = tested on: HOP-92 NSCLC
MDA-MB-435 = tested on: MDA-MB-435
MDA-N = tested on: MDA-N
NCI-H460 lung = tested on: NCI-H460 lung
OVCAR-5 ovarian = tested on: OVCAR-5 ovarian

Structure (SMILES)	TGI (EKVX NSCLC)	TGI (HL-60(TB) leukemia)	TGI (KM12 colon)	TGI (RXF 393 renal)	TGI (SK-OV-3 ovarian)	TGI (HOP-92 NSCLC)	TGI (MDA-MB-435)	TGI (MDA-N)	TGI (NCI-H460 lung)	TGI (OVCAR-5 ovarian)	GI50 (HL-60(TB) leukemia)	GI50 (HOP-92 NSCLC)	GI50 (KM12 colon)	GI50 (MDA-MB-435)	GI50 (NCI-H460 lung)	GI50 (OVCAR-5 ovarian)	GI50 (RXF 393 renal)	GI50 (SK-OV-3 ovarian)
CN1C(=O)N(c2nc3ccccc3[nH]2)C(C)(C)C1=O	> 100 µM	> 100 µM	> 100 µM	> 100 µM	> 100 µM	–	–	–	–	–	–	–	–	–	–	–	–	–
CC(=O)c1cccc(Nc2nc3ccccc3c3[nH]c4ccccc4c23)c1	21.4 µM	–	> 100 µM	–	43.7 µM	22.2 µM	71.1 µM	> 100 µM	4.36 µM	96.3 µM	–	–	–	–	–	–	–	–
CC1OC(CC2C=CCc3c(O)c4c(c(O)c32)C(=O)c2ccccc2C4=O)CC(NC(=O)C(F)(F)F)C1O (stereo unspecified)	25.7 µM	26.7 µM	61.4 µM	7.77 µM	24.6 µM	8.39 µM	–	–	24.1 µM	> 100 µM	–	–	–	–	–	–	–	–
CC12CCC(=O)[C@@]1(C)CCCC2O (stereo partly specified)	> 100 µM	> 100 µM	> 100 µM	–	> 100 µM	–	–	> 100 µM	> 100 µM	> 100 µM	–	–	–	–	–	–	–	–
COc1ccc(NC(/C(C(=O)C(=O)/C=C(\O)c2ccccc2)=C(\O)c2ccccc2)c2ccc(OC)cc2)cc1 (stereo unspecified)	50.9 µM	75.3 µM	> 100 µM	> 100 µM	> 100 µM	75.8 µM	59.1 µM	–	> 100 µM	> 100 µM	–	–	–	–	–	–	–	–
COC(=O)C(C#N)C1NC(=O)c2ccccc21 (stereo unspecified)	> 100 µM	> 100 µM	> 100 µM	> 100 µM	> 100 µM	> 100 µM	–	–	> 100 µM	> 100 µM	–	–	–	–	–	–	–	–
CCCCCCCCCCCCCCCCCCOCC(O)CO (stereo unspecified)	> 14.1 µM	> 21.4 µM	> 25 µM	> 24.1 µM	> 25 µM	24.7 µM	–	–	> 23 µM	> 25 µM	–	–	–	–	–	–	–	–
Clc1ccc(N2N=C(c3cccc(Nc4ccncc4)c3)CC2c2ccc(Br)cc2)cc1 (stereo unspecified)	–	4.51 µM	3.27 µM	3.02 µM	3.92 µM	2.85 µM	3.08 µM	–	3.53 µM	3.1 µM	2.02 µM	1.39 µM	1.73 µM	1.65 µM	1.85 µM	1.66 µM	1.62 µM	2 µM
CC(C)(C)OC(=O)C1/C(=C/CBr)CN1C(=O)OC(C)(C)C (stereo unspecified)	37.3 µM	7.5 µM	–	–	38.2 µM	31.8 µM	29.7 µM	29.7 µM	34.9 µM	35.2 µM	–	–	–	–	–	–	–	–
O=Cc1ccc(-c2ccc(S(=O)(=O)O)cc2)o1	> 100 µM	> 100 µM	> 100 µM	> 100 µM	> 100 µM	–	> 100 µM	> 100 µM	> 100 µM	> 100 µM	–	–	–	–	–	–	–	–
CCOC(=O)c1ccc(N(CCOS(=O)(=O)c2ccc(C)cc2)CCOS(=O)(=O)c2ccc(C)cc2)cc1	> 100 µM	–	> 100 µM	> 100 µM	–	> 100 µM	> 100 µM	> 100 µM	> 100 µM	> 100 µM	–	–	–	–	–	–	–	–
C/C(=C\CC/C=C(\C)CC/C=C(\C)CCC1SC1(C)C)CC/C=C(\C)CCC1OC1(C)C (stereo unspecified)	> 100 µM	> 100 µM	> 100 µM	> 100 µM	> 100 µM	> 100 µM	–	–	> 100 µM	–	–	–	–	–	–	–	–	–
CC(=O)OCC1OC(n2c(O)c(N=NC(N)=S)c3ccc([N+](=O)[O-])cc32)C(OC(C)=O)C1OC(C)=O (stereo unspecified)	> 100 µM	62.7 µM	> 100 µM	45.9 µM	> 100 µM	> 100 µM	–	–	66.2 µM	> 100 µM	–	–	–	–	–	–	–	–
O=C(NC(CCCCN1C(=O)c2ccccc2C1=O)P(=O)(Oc1ccccc1)Oc1ccccc1)OCc1ccccc1 (stereo unspecified)	> 100 µM	–	> 100 µM	> 100 µM	> 100 µM	> 100 µM	> 100 µM	> 100 µM	> 100 µM	> 100 µM	–	–	–	–	–	–	–	–
Oc1ccc(/C=N/c2nccs2)c(O)c1	> 100 µM	–	> 100 µM	> 100 µM	> 100 µM	–	–	> 100 µM	> 100 µM	> 100 µM	–	–	–	–	–	–	–	–
COc1cc([C@@H]2c3cc4c(cc3[C@@H](NC(=O)NO)[C@H]3COC(=O)[C@H]23)OCO4)cc(OC)c1O	> 100 µM	> 100 µM	–	–	–	> 100 µM	–	5.13 µM	> 100 µM	–	–	–	–	–	–	–	–	–
CCOC(OC1=C(C#N)CCCC1)C(CC)[Se]c1ccccc1[N+](=O)[O-] (stereo unspecified)	70 µM	46.1 µM	43.1 µM	65.7 µM	> 100 µM	40.6 µM	–	–	> 100 µM	66.8 µM	–	–	–	–	–	–	–	–
CC(=O)N1N=C(c2ccc3ccccc3c2O)CC1c1ccc(N(C)C)cc1 (stereo unspecified)	–	–	> 100 µM	> 100 µM	> 100 µM	> 100 µM	> 100 µM	> 100 µM	> 100 µM	> 100 µM	–	–	–	–	–	–	–	–
